According to patent US9567384B2, “Phosphorylation on the Thr-248 and/or Thr-250 residues of transcription factor E2F4 as a therapeutic target in pathological processes associated with somatic polyploidy” (CONSEJO SUPERIOR DE INVESTIGACIONES CIENTIFICAS (CSIC), priority 2011, dated 2017):

How the values were obtained:
cMyc gene promoter = assay: Luciferase assay, cMyc gene promoter reporter in chick embryo retinal cell neurogenic cultures E6; assay type: cell-based
Method: (§1) These cells respond to NGF by inducing cell cycle reactivation that leads to somatic tetraploidy (endoreduplication) (Morillo et al., 2010). A. Western blot with anti-active p38^MAPK (P-p38^MAPK) and anti-p38^MAPK in nuclear extracts of the mentioned neurogenic cultures treated for the indicated time with 100 ng/ml NGF. The normalized ratios between P-p38^MAPK and p38^MAPK levels are indicated at the bottom. B. Immunohistochemical staining with anti-active p38^MAPK antibodies (P-p38^MAPK) in the mentioned neurogenic cultures treated with 100 ng/ml NGF for 20 minutes. The nuclei were labeled with bisbenzimide (Bisb.). […] C. Luciferase assay in extracts of chick embryo retinal cell neurogenic cultures E6 transfected with a plasmid expressing luciferase under the control of cMyc gene promoter, known for its response to E2F during G1/S transition, and another plasmid with the constitutive expression of β-galactosidase. The luciferase/β-galactosidase ratio values are depicted as “luciferase activity”. […] This effect is blocked with selective p38^MAPK inhibitor SB203580 (used at 5 μM). D. Incorporation of BrdU to indicate entry into S phase in chick embryo retinal cell neurogenic cultures E6.

[1] = system: chick embryo retinal cell neurogenic cultures E6; assay: Incorporation of BrdU (entry into S phase) in chick embryo retinal cell neurogenic cultures E6; assay type: cell-based
Method: as §1
A. Luciferase activity analyzed as described in FIG. 2C. […] Based on the results shown in panels A and B, it is deduced that p38^MAPK acts exclusively through Thr261/Thr263 residues. C. Luciferase activity analyzed as described in FIG. 2C.

E2F4 = assay: Western blot with anti-phosphoThr antibodies in extracts immunoprecipitated with anti-E2F4 antibodies; assay type: cell-based, chick; settings: 100 ng/ml NGF
p38^MAPK = assay: Immunohistochemical staining with anti-active p38MAPK antibodies in neurogenic cultures; assay type: cell-based, chick; settings: 100 ng/ml NGF for 20 minutes
Method: as §1

[2] = expression of E2F4-ND, 100 ng/ml NGF

## nerve growth factor [NGF]
cMyc gene promoter; 100 ng/ml NGF
  luciferase activity (luciferase/β-galactosidase ratio), cMyc promoter: entails cMyc promoter activation
[1]; 100 ng/ml NGF
  incorporation of BrdU, proportion of cells in S phase: an increase in the proportion of cells in S phase
E2F4
  phosphorylation on threonine residues of E2F4: increase in phosphorylation on threonine residues
p38^MAPK
  active p38MAPK (P-p38MAPK) signal in the nucleus: signal increase

## E2F4-CA: constitutively active form of chicken E2F4 characterized by Thr261Glu/Thr263Glu substitutions
cMyc gene promoter; expression of E2F4-CA in the presence of SB203580 5 μM
  cMyc promoter activity (luciferase activity): can be observed even in the presence
cMyc gene promoter; expression of E2F4-CA, transfected cells
  cMyc promoter activity (luciferase activity): induces cMyc promoter activity
[1]; cells transfected with E2F4-CA
  incorporation of BrdU: increases significantly
[1]; cells transfected with E2F4-CA in the presence of SB203580 5 μM
  incorporation of BrdU: can be observed even in the presence
[1]; summary of FIG. 4A, FIG. 4B (luciferase and BrdU)
  mimicking the effect of NGF on retinal neurons (cell cycle reactivation): capable of mimicking the effect of NGF

## E2F4-ND: negative dominant form of chicken E2F4 characterized by Thr261Ala/Thr263Ala substitutions, preventing phosphorylation by p38MAPK
cMyc gene promoter; [2]
  effect of NGF on cMyc promoter activity (luciferase activity): prevents the effect
[1]; [2]
  effect of NGF on the incorporation of BrdU: prevents the effect
[1]; summary of FIG. 4C, FIG. 4D (luciferase and BrdU)
  effect of NGF on the cell cycle in neurogenic retinal cultures: capable of inhibiting the effect of NGF

## C[S+]([O-])c1ccc(-c2nc(-c3ccncc3)c(-c3ccc(F)cc3)[nH]2)cc1 (stereo not drawn) [SB203580, reference compound]
cMyc gene promoter; 100 ng/ml NGF, SB203580 used at 5 μM
  effect on NGF-induced cMyc promoter activation (luciferase activity): blocked
[1]; 100 ng/ml NGF, inhibitor used at 5 μM
  effect on NGF-induced increase in the proportion of cells in S phase (BrdU): blocked
E2F4; SB203580 used at 5 μM
  effect on NGF-promoted phosphorylation on threonine residues of E2F4: inhibits such phosphorylation
